Measurements: publication PMC8496750, “Identification of the organic anion transporting polypeptides responsible for the hepatic uptake of the major metabolite of epyrifenacil, S‐3100‐CA, in mice” (Pharmacology Research & Perspectives, 2021)

Tests used:
mouse Oatp1b2 = target: T1, mouse Oatp1b2 (Mus musculus, UniProt Q9JJL3); assay: Uptake assay for radiolabeled substrates, mouse Oatp1b2 expressing 293FT cells; details: 10‐min incubation
T1 sequence (Q9JJL3 1-689): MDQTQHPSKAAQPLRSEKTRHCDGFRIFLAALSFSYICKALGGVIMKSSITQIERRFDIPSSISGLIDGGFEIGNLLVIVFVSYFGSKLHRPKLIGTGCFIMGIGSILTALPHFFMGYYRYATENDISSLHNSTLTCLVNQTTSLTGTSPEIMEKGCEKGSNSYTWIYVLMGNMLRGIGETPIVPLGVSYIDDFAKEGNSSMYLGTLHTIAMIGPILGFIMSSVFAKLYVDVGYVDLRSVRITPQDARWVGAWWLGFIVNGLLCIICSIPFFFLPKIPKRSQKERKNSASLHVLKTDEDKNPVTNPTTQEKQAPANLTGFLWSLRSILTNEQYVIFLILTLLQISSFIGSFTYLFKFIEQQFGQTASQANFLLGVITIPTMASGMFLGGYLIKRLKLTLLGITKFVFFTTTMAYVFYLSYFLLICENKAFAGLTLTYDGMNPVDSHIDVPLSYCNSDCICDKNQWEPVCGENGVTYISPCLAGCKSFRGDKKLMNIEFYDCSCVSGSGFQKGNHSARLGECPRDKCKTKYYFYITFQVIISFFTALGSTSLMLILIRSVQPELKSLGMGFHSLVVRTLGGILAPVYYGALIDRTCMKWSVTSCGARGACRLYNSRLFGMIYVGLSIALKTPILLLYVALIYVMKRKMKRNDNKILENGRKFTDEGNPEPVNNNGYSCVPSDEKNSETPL
Procedure: (§1) 293FT cells were purchased from Thermo Fisher Scientific, Inc.. The cells were grown in Dulbecco's modified Eagle medium (supplemented with 4.5 g/L glucose and 2 mM L‐glutamine) at 37°C, 5% CO2, and 95% humidity. The cells were passaged 3 times per week by harvesting cells using trypsin and plating at a density of 1.0 × 10^4 cells/cm^2 in a 10 cm cell culture plate for maintenance culture. The 293FT cells were detached using trypsin and re‐seeded at a density of 2.5 × 10^4 cells/cm^2 in BioCoat™ Collagen I 6‐well plates (Corning Inc.) for transfection and then treated with 1.2 μg of plasmid vector and 3.2 μl of Lipofectamine™ 2000 Transfection Reagent (Thermo Fisher Scientific, Inc.) according to the manufacturer's instructions. After a 3‐h treatment, the transfection medium was replaced with a fresh cell culture medium and incubated at 37°C with 95% humidity and 5% CO2 until ready for the assay.
(§2) Transport experiments were conducted approximately 24 h post‐transfection. The experiments were initiated by aspirating culture medium and addition of pre‐warmed radiolabeled substrate solution (final 1.0% of acetonitrile or 0.9% of ethanol in phosphate‐buffered saline (PBS[−])) to each well. After a 10‐min incubation, cells were washed twice with 1 ml of ice‐cold PBS(−) and lysed with 700 μl of 1.0 M NaOH for 3 h or more at room temperature. The lysate was transferred to a 1.5‐ml tube, and neutralized with 350 μl of 2.0 M HCl and 350 μl of 2.0% sodium dodecyl sulfate (SDS) solution. From the lysate, 1.0 ml was transferred to a vial containing 10 ml of Emulsifier Scintillator Plus to measure the radioactivity in the LSC. The protein concentration of the cell lysate was also measured using a Pierce™ BCA Protein Assay Kit (Thermo Fisher Scientific, Inc.), which was used to normalize, according to the cell number, the radioactivity in the cell lysate extract. The protein assay was performed in duplicate. Each sample type was assayed in triplicate wells, and each run was performed twice. When the difference in mean uptake between OATP expressing cells and mock cells was more than 2 times, the OATP was judged to be involved in transportation of the substrate. […] Each sample type was assayed in triplicate wells.

human OATP2B1 = target: T2, human OATP2B1 (Homo sapiens, UniProt O94956); assay: Uptake assay for radiolabeled substrates, human OATP2B1 expressing 293FT cells; format: in vitro ADME; details: 10‐min incubation
T2 construct: expressed in transfected cells; host or cells: 293FT cells
T2 sequence (O94956 1-709): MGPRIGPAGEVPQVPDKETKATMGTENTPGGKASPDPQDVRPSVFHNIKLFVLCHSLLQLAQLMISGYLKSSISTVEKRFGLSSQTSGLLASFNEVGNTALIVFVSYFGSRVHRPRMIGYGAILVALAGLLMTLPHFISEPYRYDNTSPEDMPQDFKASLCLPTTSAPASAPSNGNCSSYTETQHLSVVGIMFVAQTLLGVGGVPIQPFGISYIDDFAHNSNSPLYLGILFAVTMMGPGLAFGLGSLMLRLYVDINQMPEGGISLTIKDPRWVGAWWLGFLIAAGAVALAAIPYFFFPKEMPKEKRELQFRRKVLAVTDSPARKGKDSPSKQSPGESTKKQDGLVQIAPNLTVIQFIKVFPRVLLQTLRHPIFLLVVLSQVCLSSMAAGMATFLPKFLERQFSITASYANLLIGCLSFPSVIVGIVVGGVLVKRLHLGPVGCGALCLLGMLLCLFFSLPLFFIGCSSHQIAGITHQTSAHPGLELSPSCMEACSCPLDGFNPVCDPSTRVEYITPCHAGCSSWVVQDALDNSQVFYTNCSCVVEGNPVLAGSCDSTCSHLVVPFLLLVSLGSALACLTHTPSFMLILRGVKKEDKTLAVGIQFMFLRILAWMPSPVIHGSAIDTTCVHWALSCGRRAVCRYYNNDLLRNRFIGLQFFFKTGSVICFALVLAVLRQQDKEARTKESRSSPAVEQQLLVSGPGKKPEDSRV
Procedure: as §1, §2

Row | SMILES | Ratio of uptake amount relative to the uptake into mock cells (mouse Oatp1b2; Run_1) | Ratio of uptake amount relative to the uptake into mock cells (mouse Oatp1b2; Run_2) | Ratio of uptake amount relative to the uptake into mock cells (human OATP2B1; Run_1) | Ratio of uptake amount relative to the uptake into mock cells (human OATP2B1; Run_2)
1 | C[C@]12CC[C@@H]3c4ccc(OS(=O)(=O)O)cc4CC[C@H]3[C@@H]1CCC2=O [E3S, Estrone 3‐sulfate] | 23.8 | 19.7 | 16.2 | 1.9
2 | C[C@]12CC[C@@H]3c4ccc(O)cc4CC[C@H]3[C@@H]1CC[C@@H]2O[C@@H]1O[C@H](C(=O)O)[C@@H](O)[C@H](O)[C@H]1O [E217βG, Estradiol 17β‐D‐glucuronide] | 8.3 | 14.7 | 1.9 | 0.6
3 | Cn1c(C(F)(F)F)cc(=O)n(-c2cc(Oc3cccnc3OCC(=O)O)c(Cl)cc2F)c1=O [S‐3100‐CA] | 11.7 | 6.2 | 2.6 | 1.9
